The test system of data set [1] is VCaP cells. Nature of the data set: VCaP cell proliferation. In kind it is cell-based.
Data set [2] deals with T1, AR (Homo sapiens, UniProt P10275).
T1 sequence (P10275 1-920): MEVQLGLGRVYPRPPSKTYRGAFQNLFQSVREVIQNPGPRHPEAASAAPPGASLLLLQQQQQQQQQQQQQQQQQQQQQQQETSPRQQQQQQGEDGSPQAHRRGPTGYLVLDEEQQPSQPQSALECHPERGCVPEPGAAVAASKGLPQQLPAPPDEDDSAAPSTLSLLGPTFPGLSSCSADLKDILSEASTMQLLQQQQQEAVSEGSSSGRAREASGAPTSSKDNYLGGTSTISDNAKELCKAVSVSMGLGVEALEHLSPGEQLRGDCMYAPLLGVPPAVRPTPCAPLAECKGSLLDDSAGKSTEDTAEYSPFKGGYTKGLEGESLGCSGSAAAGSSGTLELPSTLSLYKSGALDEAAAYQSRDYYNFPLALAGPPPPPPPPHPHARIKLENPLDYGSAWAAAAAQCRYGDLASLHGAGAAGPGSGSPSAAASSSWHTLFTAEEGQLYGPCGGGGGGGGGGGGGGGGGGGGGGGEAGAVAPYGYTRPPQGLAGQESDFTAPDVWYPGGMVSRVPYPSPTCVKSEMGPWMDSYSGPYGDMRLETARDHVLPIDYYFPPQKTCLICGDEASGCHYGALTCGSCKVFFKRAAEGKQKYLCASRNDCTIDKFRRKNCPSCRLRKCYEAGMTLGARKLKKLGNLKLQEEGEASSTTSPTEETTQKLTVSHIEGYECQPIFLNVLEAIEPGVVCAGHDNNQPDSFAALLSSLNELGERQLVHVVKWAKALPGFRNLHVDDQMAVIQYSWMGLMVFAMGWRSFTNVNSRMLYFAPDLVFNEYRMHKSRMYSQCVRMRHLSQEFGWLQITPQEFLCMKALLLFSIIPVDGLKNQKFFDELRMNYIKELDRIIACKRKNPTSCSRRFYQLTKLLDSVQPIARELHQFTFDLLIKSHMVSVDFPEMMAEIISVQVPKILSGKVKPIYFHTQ
Nature of the data set: Western blot analysis of AR degradation. The class given is cell-based.

The target of data set [3] is T2, T877A mutant androgen receptor (Homo sapiens, UniProt P10275, T878A).
T2 construct: endogenous in cells; host or cells: LNCaP-XIP
T2 sequence (P10275 1-920 T878A): T1 sequence (P10275 1-920) with T878A
Nature of the data set: FKBP51 endogenous gene expression in LNCaP-XIP cells. In kind it is cell-based. From the text: (§1) FIG. 44 depicts data for dose-dependent inhibition of androgen receptor-dependent endogenous gene expression of FKBP51 by Compound 1 of Example IV in LNCaP cells producing exclusively T877A mutant androgen receptor (LNCaP-XIP) and LNCaP cells transfected with wild type androgen receptor (LNCaP-androgen receptor, ratio of wild type to T877A receptor is ca. 3:1).
(§2) To more fully characterize the selectivity of compound 1 for the mutant receptor, we measured its inhibitory potential against the WT and T877A mutant receptor in an AR-dependent luciferase transcription assay in CV-1 cells (FIGS. 43A and B).

For data set [4], the target named is T3, T877A (LNCaP) AR (Homo sapiens, UniProt P10275, T878A).
T3 construct: expressed in transfected cells; host or cells: CV-1
T3 sequence (P10275 1-920 T878A): T1 sequence (P10275 1-920) with T878A
Nature of the data set: MMTV-luciferase transcription assay in CV-1 cells, T877A AR. In kind it is cell-based. From the text:
These compounds were screened using an AR-responsive MMTV transcription assay in CV-1 cells, utilizing both wild type and T877A (LNCaP) AR. […]

For data set [5], the system named is LNCaP and VCaP cell lines. Nature of the data set: General toxicity screen in LNCaP and VCaP cell lines. As to conditions: at concentrations as high as 25 μM. In kind it is cell-based, human.
The target of data set [6] is T4, AR NTD/LBD interaction (Homo sapiens, UniProt P10275).
T4 construct: expressed in transfected cells; host or cells: CV-1
T4 sequence (P10275 1-920): T1 sequence (P10275 1-920)
Nature of the data set: AR NTD/LBD interaction reporter assay in CV-1 cells. The class given is cell-based. From the text:
Accordingly, we analyzed the disruption of AR/DNA binding using a luciferase reporter gene assay transfected with an AR-VP16 construct that is constitutively active upon DNA binding, regardless of the ability of AR to recruit transcriptional machinery (FIG. 40A). Simultaneously, we examined CV-1 cells transfected with an AR construct that is only transcriptionally active when there is a positive interaction between the NTD and C-terminal LBD ([…]) (FIG. 40B).
(In general: In a reporter assay the amount or activity of a reporter protein is the signal.)

The subject of data set [7] is wild type androgen receptor. Nature of the data set: FKBP51 endogenous gene expression in LNCaP-AR cells (wild type AR overexpressed). In kind it is cell-based, human. As to conditions: at 20 M (so in the source).
Excerpt: as §1, §2

Residue numbers refer to the chain shown, from its start. Where two headings read alike, the source gives them in different places.

On to `COc1cc([C@H]2[C@H](c3ccccc3)[C@H](c3cc(OC)nc(OC)n3)[C@H]2c2ccccc2)nc(OC)n1` [CB-22], for which, in data set [1], the “inhibition of VCaP cell proliferation” value is “slow cell-growth in a dose-dependent manner”. Further, the “rate of receptor proteolysis” value in data set [2] was “does not influence the rate of receptor proteolysis”. For the same compound, in data set [3] (FKBP51 expression, T877A mutant receptor), the “concentration at which maximal inhibition is obtained” value came out at 2 µM. For the same compound, the “inhibition of FKBP51 gene expression” value in data set [3] (LNCaP-XIP, 2 μM) was “complete inhibition”; in data set [7], “approximately 50%”. For the same compound, in data set [4] (AR-dependent luciferase transcription assay in CV-1 cells), the “increase in potency for T877A mutant over WT” value was “approximately 10 fold”. The IC50 in data set [4] (CV1 transient transfection, MMTV-Luciferase reporter, read-out: IC50 T877A) was determined as 0.81 µM; in data set [4] (T877A AR, values given in μM, read-out: MMTV transcription assay in CV-1 cells T877A (IC50)), 1.1 µM. Further, the toxicity entry in data set [5] is “complete lack of toxicity”. In data set [6], the “inhibition of the NTD/LBD interaction” value is given as “inhibitory activity”.

The term IC50 denotes the concentration needed to halve the response being measured.

The values above are taken from patent US9868705B2, “Tetra-aryl cyclobutane inhibitors of androgen receptor action for the treatment of hormone refractory cancer” (The Board of Trustees of the University of Illinois, priority 2013, dated 2018).
